The results in this text go back to ChEMBL document CHEMBL5528016, “Design, synthesis and evaluation of novel deferasirox derivatives with high antifungal potency in vitro and in vivo” (Eur J Med Chem, 2024).

Values after ≈ are worked out from the molar mass of the structure shown.

Type in all cases: functional
Test [1] has as its system Cryptococcus neoformans. Description: Antifungal activity against Cryptococcus neoformans H99 assessed as reduction in fungal growth incubated for 72 hrs by broth microdilution method. Background: In broth dilution the organism is exposed to a series of concentrations in liquid medium.
The test system of another test is Nakaseomyces glabratus. Description: Antifungal activity against Candida glabrata 537 assessed as reduction in fungal growth incubated for 72 hrs by broth microdilution method.
Another test relates to Pichia kudriavzevii. Description: Antifungal activity against Pichia kudriavzevii 4946 assessed as reduction in fungal growth incubated for 72 hrs by broth microdilution method.
In a further test the test system is Candida tropicalis. Description: Antifungal activity against Candida tropicalis 2718 assessed as reduction in fungal growth incubated for 72 hrs by broth microdilution method.
A further test concerns [Candida] auris. Description: Antifungal activity against Candida auris D12 assessed as reduction in fungal growth incubated for 72 hrs by broth microdilution method. To be noted: Candidozyma auris.
A further test concerns Candida parapsilosis. As to the kind of experiment: Antifungal activity against Candida parapsilosis ATCC 22019 assessed as reduction in fungal growth incubated for 72 hrs by broth microdilution method. To be noted: Lodderomyces parapsilosis.
For test [2], the system named is Cryptococcus neoformans. As to the kind of experiment: Potency index, ratio of deferasirox MIC to test compound for antifungal activity against Cryptococcus neoformans H99 incubated for 72 hrs by broth microdilution method.
Another test deals with Candida albicans. Description: Antifungal activity against Candida albicans SC5314 assessed as reduction in fungal growth incubated for 72 hrs by broth microdilution method.

As for `NC(=O)c1ccc(-n2nc(-c3ccccc3O)nc2-c2ccccc2O)cc1`, the MIC (in general, the lowest concentration found to suppress growth) in the test on Cryptococcus neoformans [1] came out at 4 µg/mL (≈ 10.7 µM).

Take `COC(=O)CCNC(=O)c1ccc(-n2nc(-c3ccccc3O)nc2-c2ccccc2O)cc1`: the MIC was less than 0.125 µg/mL in the test on Nakaseomyces glabratus; 0.5 µg/mL (≈ 1.09 µM) in the test on Cryptococcus neoformans [1]; 4 µg/mL (≈ 8.72 µM) in the test with Pichia kudriavzevii; 0.125 µg/mL (≈ 0.273 µM) with Candida tropicalis; greater than 64 µg/mL in test [Candida] auris; greater than 64 µg/mL in the test with Candida parapsilosis. The MIC with Candida albicans was greater than 64 µg/mL. The Ratio in the test on Cryptococcus neoformans [2] is recorded as 4.

Turning to `O=C(NNCc1ccccc1)c1ccc(-n2nc(-c3ccccc3O)nc2-c2ccccc2O)cc1`, the MIC in the test on Cryptococcus neoformans [1] turned out to be 8 µg/mL (≈ 16.8 µM).

Regarding `O=C(NCCC1CCOCC1)c1ccc(-n2nc(-c3ccccc3O)nc2-c2ccccc2O)cc1`, the MIC was less than 0.125 µg/mL with Nakaseomyces glabratus; 0.25 µg/mL (≈ 0.516 µM) in the test on Cryptococcus neoformans [1]; 16 µg/mL (≈ 33 µM) with Pichia kudriavzevii; 1 µg/mL (≈ 2.06 µM) in the test with Candida tropicalis; greater than 64 µg/mL in test [Candida] auris; 32 µg/mL (≈ 66 µM) with Candida parapsilosis. Further, in the test with Candida albicans, the MIC stood at 32 µg/mL (≈ 66 µM).

With `O=C(NCC(O)c1ccccc1)c1ccc(-n2nc(-c3ccccc3O)nc2-c2ccccc2O)cc1` (stereo not given), in the test with Cryptococcus neoformans [1], the minimal inhibitory concentration (MIC) was 4 µg/mL (≈ 8.12 µM).

On to `O=C(NC1CCS(=O)(=O)C1)c1cccc(-n2nc(-c3ccccc3O)nc2-c2ccccc2O)c1` (stereo not given), for which, in the test with Cryptococcus neoformans [1], the MIC turned out to be 4 µg/mL (≈ 8.15 µM).

For the compound `CCCNC(=O)c1ccc(-n2nc(-c3ccccc3O)nc2-c2ccccc2O)cc1`, in the test on Cryptococcus neoformans [1], the MIC turned out to be 4 µg/mL (≈ 9.65 µM).

On to `CN1CCC(CNC(=O)c2ccc(-n3nc(-c4ccccc4O)nc3-c3ccccc3O)cc2)CC1`, for which the MIC in the test on Cryptococcus neoformans [1] was 4 µg/mL (≈ 8.27 µM).

Turning to `O=C(N[C@@H]1CCOC1)c1ccc(-n2nc(-c3ccccc3O)nc2-c2ccccc2O)cc1`, the MIC in the test with Cryptococcus neoformans [1] came to 4 µg/mL (≈ 9.04 µM).

In the case of `O=C(NCCCN1CCOCC1)c1ccc(-n2nc(-c3ccccc3O)nc2-c2ccccc2O)cc1`, the MIC with Cryptococcus neoformans [1] worked out at 1 µg/mL (≈ 2 µM).

Consider `CCCCNC(=O)c1ccc(-n2nc(-c3ccccc3O)nc2-c2ccccc2O)cc1`, for which, in the test with Cryptococcus neoformans [1], the minimum inhibitory concentration (MIC) worked out at 4 µg/mL (≈ 9.34 µM).

As to `O=C(NCCCN1CCOCC1)c1cccc(-n2nc(-c3ccccc3O)nc2-c2ccccc2O)c1`, in the test with Cryptococcus neoformans [1], the MIC worked out at 2 µg/mL (≈ 4 µM).

Consider `CS(=O)(=O)CCNC(=O)c1ccc(-n2nc(-c3ccccc3O)nc2-c2ccccc2O)cc1`, for which, in the test with Cryptococcus neoformans [1], the MIC amounted to 1 µg/mL (≈ 2.09 µM).

`O=C(NCCCn1ccnc1)c1ccc(-n2nc(-c3ccccc3O)nc2-c2ccccc2O)cc1`: the MIC with Cryptococcus neoformans [1] is 8 µg/mL (≈ 16.6 µM).

As to `O=C(NCC1CCS(=O)(=O)C1)c1ccc(-n2nc(-c3ccccc3O)nc2-c2ccccc2O)cc1` (stereo not given), in the test with Cryptococcus neoformans [1], the MIC was 8 µg/mL (≈ 15.9 µM).

Take `COCCCNC(=O)c1ccc(-n2nc(-c3ccccc3O)nc2-c2ccccc2O)cc1`: in the test with Cryptococcus neoformans [1], the MIC amounted to 4 µg/mL (≈ 9 µM).

Turning to `O=C(NCc1ccccn1)c1ccc(-n2nc(-c3ccccc3O)nc2-c2ccccc2O)cc1`, the MIC with Cryptococcus neoformans [1] amounted to 8 µg/mL (≈ 17.3 µM).

For the compound `O=C(NCc1ccncc1)c1ccc(-n2nc(-c3ccccc3O)nc2-c2ccccc2O)cc1`, the minimal inhibitory concentration (MIC) in the test with Cryptococcus neoformans [1] turned out to be 4 µg/mL (≈ 8.63 µM).

For `O=C1CC(NC(=O)c2ccc(-n3nc(-c4ccccc4O)nc3-c3ccccc3O)cc2)CN1` (stereo not given), the MIC in the test with Cryptococcus neoformans [1] was found to be 4 µg/mL (≈ 8.78 µM).

Consider `O=C(NCc1ccccc1)c1ccc(-n2nc(-c3ccccc3O)nc2-c2ccccc2O)cc1`, for which, in the test with Cryptococcus neoformans [1], the MIC amounted to 4 µg/mL (≈ 8.65 µM).

On to `O=C(NCCN1CCCCC1)c1ccc(-n2nc(-c3ccccc3O)nc2-c2ccccc2O)cc1`, for which the MIC with Cryptococcus neoformans [1] was determined as 1 µg/mL (≈ 2.07 µM).

As for `CC(C)(O)CCNC(=O)c1ccc(-n2nc(-c3ccccc3O)nc2-c2ccccc2O)cc1`, the MIC was less than 0.125 µg/mL in the test on Nakaseomyces glabratus; 1 µg/mL (≈ 2.18 µM) with Cryptococcus neoformans [1]; 4 µg/mL (≈ 8.72 µM) with Pichia kudriavzevii; 4 µg/mL (≈ 8.72 µM) in the test on Candida tropicalis; greater than 64 µg/mL in test [Candida] auris; greater than 64 µg/mL with Candida parapsilosis. Further, the MIC with Candida albicans was determined as 16 µg/mL (≈ 34.9 µM). Also, the Ratio in the test on Cryptococcus neoformans [2] is 2.

For the compound `O=C(NCCCC(F)(F)F)c1ccc(-n2nc(-c3ccccc3O)nc2-c2ccccc2O)cc1`, the MIC in the test with Cryptococcus neoformans [1] turned out to be 8 µg/mL (≈ 16.6 µM).

`O=C(c1ccc(-n2nc(-c3ccccc3O)nc2-c2ccccc2O)cc1)N1CCC(O)CC1`: the MIC in the test on Cryptococcus neoformans [1] is 4 µg/mL (≈ 8.76 µM).

As to `C[N+]1(CCNC(=O)c2ccc(-n3nc(-c4ccccc4O)nc3-c3ccccc3O)cc2)CCOCC1.[I-]`, the MIC in the test on Cryptococcus neoformans [1] is 4 µg/mL.

For the compound `CNC(=O)c1ccc(-n2nc(-c3ccccc3O)nc2-c2ccccc2O)cc1`, the MIC in the test on Cryptococcus neoformans [1] stood at 1 µg/mL (≈ 2.59 µM).

With `O=C(NCCc1ccccn1)c1ccc(-n2nc(-c3ccccc3O)nc2-c2ccccc2O)cc1`, the MIC with Nakaseomyces glabratus is less than 0.125 µg/mL; in the test on Cryptococcus neoformans [1], 0.5 µg/mL (≈ 1.05 µM); with Pichia kudriavzevii it was 4 µg/mL (≈ 8.38 µM); in the test with Candida tropicalis, 64 µg/mL (≈ 134 µM); in test [Candida] auris, greater than 64 µg/mL; with Candida parapsilosis, greater than 64 µg/mL. Further, the minimum inhibitory concentration (MIC) in the test with Candida albicans was found to be 32 µg/mL (≈ 67 µM).

Regarding `O=C(NN1CCOCC1)c1ccc(-n2nc(-c3ccccc3O)nc2-c2ccccc2O)cc1`, the minimum inhibitory concentration (MIC) in the test on Cryptococcus neoformans [1] amounted to 2 µg/mL (≈ 4.37 µM).

Turning to `O=C(O)c1cccc(-n2nc(-c3ccccc3O)nc2-c2ccccc2O)c1`, the MIC with Cryptococcus neoformans [1] turned out to be 4 µg/mL (≈ 10.7 µM).
